Assay results published in PubChem BioAssay (NCI).
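Interpolation was linear, between the two tested concentrations surrounding the appropriate level; five concentrations were tested over 48 hours in 96-well plates. TGI denotes the concentration required for complete inhibition of growth.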

Tests used:
Assay in all cases: inhibition of tumour cell growth, NCI panel, 48 h
DU-145 prostate = system: DU-145 prostate
SR leukemia = system: SR leukemia
MALME-3M melanoma = system: MALME-3M melanoma
UACC-62 melanoma = system: UACC-62 melanoma
CCRF-CEM leukemia = system: CCRF-CEM leukemia
SK-MEL-2 melanoma = system: SK-MEL-2 melanoma
A498 renal = system: A498 renal
ACHN renal = system: ACHN renal
T-47D breast = system: T-47D breast
MOLT-4 leukemia = system: MOLT-4 leukemia
NCI/ADR-RES ovarian = system: NCI/ADR-RES ovarian
TK-10 renal = system: TK-10 renal
SK-MEL-5 melanoma = system: SK-MEL-5 melanoma
M14 melanoma = system: M14 melanoma
MDA-N = system: MDA-N
NCI-H226 lung = system: NCI-H226 lung
NCI-H522 lung = system: NCI-H522 lung
HCC-2998 colon = system: HCC-2998 colon
CAKI-1 renal = system: CAKI-1 renal
SW-620 colon = system: SW-620 colon
OVCAR-4 ovarian = system: OVCAR-4 ovarian
IGROV1 ovarian = system: IGROV1 ovarian
HL-60(TB) leukemia = system: HL-60(TB) leukemia
MDA-MB-231 breast = system: MDA-MB-231 breast
SNB-75 CNS = system: SNB-75 CNS
SK-MEL-28 melanoma = system: SK-MEL-28 melanoma
SN12C renal = system: SN12C renal
HT29 colon = system: HT29 colon
A549 NSCLC = system: A549 NSCLC
HOP-62 NSCLC = system: HOP-62 NSCLC
RXF 393 renal = system: RXF 393 renal
RPMI-8226 leukemia = system: RPMI-8226 leukemia
HCT-15 colon = system: HCT-15 colon
SF-295 CNS = system: SF-295 CNS
SF-539 CNS = system: SF-539 CNS
SNB-19 CNS = system: SNB-19 CNS
MDA-MB-435 = system: MDA-MB-435
HCT-116 colon = system: HCT-116 colon
KM12 colon = system: KM12 colon
UACC-257 melanoma = system: UACC-257 melanoma
UO-31 renal = system: UO-31 renal
OVCAR-3 ovarian = system: OVCAR-3 ovarian
OVCAR-5 ovarian = system: OVCAR-5 ovarian
SF-268 CNS = system: SF-268 CNS
MCF7 breast = system: MCF7 breast
K-562 leukemia = system: K-562 leukemia
NCI-H460 lung = system: NCI-H460 lung
HOP-92 NSCLC = system: HOP-92 NSCLC
OVCAR-8 ovarian = system: OVCAR-8 ovarian
PC-3 prostate = system: PC-3 prostate
BT-549 breast = system: BT-549 breast
786-0 renal = system: 786-0 renal
U251 CNS = system: U251 CNS
COLO 205 colon = system: COLO 205 colon
NCI-H23 lung = system: NCI-H23 lung
HS 578T breast = system: HS 578T breast
SK-OV-3 ovarian = system: SK-OV-3 ovarian
EKVX NSCLC = system: EKVX NSCLC
LOX IMVI melanoma = system: LOX IMVI melanoma
DMS 273 small cell lung = system: DMS 273 small cell lung
DMS 114 small cell lung = system: DMS 114 small cell lung
DLD-1 colon = system: DLD-1 colon
M19-MEL melanoma = system: M19-MEL melanoma
HOP-18 NSCLC = system: HOP-18 NSCLC
KM20L2 colon = system: KM20L2 colon
XF 498 CNS = system: XF 498 CNS

Nc1ncc(N)c(NCC2(CO)CC(CCc3ccccc3)C2)n1 (stereo not drawn)
TGI (DU-145 prostate): 24.2 µM | TGI (SR leukemia): 13.2 µM | TGI (MALME-3M melanoma): 23.7 µM | TGI (UACC-62 melanoma): 21.1 µM | TGI (CCRF-CEM leukemia): 4.34 µM | TGI (SK-MEL-2 melanoma): 23 µM | TGI (A498 renal): 27.4 µM | TGI (ACHN renal): 24.5 µM | TGI (T-47D breast): 9.82 µM | TGI (MOLT-4 leukemia): 8.56 µM | TGI (NCI/ADR-RES ovarian): 40.9 µM | TGI (TK-10 renal): 25.1 µM | TGI (SK-MEL-5 melanoma): 14 µM | TGI (M14 melanoma): 24 µM | TGI (MDA-N): 21.5 µM | TGI (NCI-H226 lung): 18.4 µM | TGI (NCI-H522 lung): 3.58 µM | TGI (HCC-2998 colon): 23.7 µM | TGI (CAKI-1 renal): 21.8 µM | TGI (SW-620 colon): 23.9 µM | TGI (OVCAR-4 ovarian): 20.8 µM | TGI (IGROV1 ovarian): 22.4 µM | TGI (HL-60(TB) leukemia): 0.987 µM | TGI (MDA-MB-231 breast): 14.8 µM | TGI (SNB-75 CNS): 29.4 µM | TGI (SK-MEL-28 melanoma): 27.9 µM | TGI (SN12C renal): 24.9 µM | TGI (HT29 colon): 20.5 µM | TGI (A549 NSCLC): 28.8 µM | TGI (HOP-62 NSCLC): 28.3 µM | TGI (RXF 393 renal): 27.8 µM | TGI (RPMI-8226 leukemia): 4.78 µM | TGI (HCT-15 colon): 36.5 µM | TGI (SF-295 CNS): 24.5 µM | TGI (SF-539 CNS): 8.67 µM | TGI (SNB-19 CNS): 23.4 µM | TGI (MDA-MB-435): 22.9 µM | TGI (HCT-116 colon): 20.1 µM | TGI (KM12 colon): 23 µM | TGI (UACC-257 melanoma): 22.8 µM | TGI (UO-31 renal): 15 µM | TGI (OVCAR-3 ovarian): 13.3 µM | TGI (OVCAR-5 ovarian): 28.5 µM | TGI (SF-268 CNS): > 43 µM | TGI (MCF7 breast): 15.9 µM | TGI (K-562 leukemia): 12.9 µM | TGI (NCI-H460 lung): 30.5 µM | TGI (HOP-92 NSCLC): 11.5 µM | TGI (OVCAR-8 ovarian): 23.7 µM | TGI (PC-3 prostate): 18.9 µM | TGI (BT-549 breast): 23.1 µM | TGI (786-0 renal): 22.5 µM | TGI (U251 CNS): 19.6 µM | TGI (COLO 205 colon): 16.8 µM | TGI (NCI-H23 lung): 20.8 µM | TGI (HS 578T breast): 36.1 µM | TGI (SK-OV-3 ovarian): 25.4 µM | TGI (EKVX NSCLC): 22.7 µM | TGI (LOX IMVI melanoma): 16.6 µM

Cc1nc2ccccc2c(=O)n1/N=C(\N=Nc1ccccc1Cl)c1ccccc1
TGI (UACC-62 melanoma): 46.6 µM | TGI (CCRF-CEM leukemia): 55.2 µM | TGI (A498 renal): > 100 µM | TGI (DMS 273 small cell lung): > 100 µM | TGI (TK-10 renal): > 100 µM | TGI (DMS 114 small cell lung): 37.8 µM | TGI (SK-MEL-5 melanoma): 41.9 µM | TGI (M14 melanoma): 97.7 µM | TGI (NCI-H522 lung): 60.9 µM | TGI (DLD-1 colon): > 100 µM | TGI (CAKI-1 renal): 43 µM | TGI (SW-620 colon): 63.9 µM | TGI (IGROV1 ovarian): 38.9 µM | TGI (HL-60(TB) leukemia): 38.3 µM | TGI (SK-MEL-28 melanoma): > 100 µM | TGI (HT29 colon): 47.6 µM | TGI (A549 NSCLC): > 100 µM | TGI (M19-MEL melanoma): 67.2 µM | TGI (HOP-62 NSCLC): > 100 µM | TGI (RXF 393 renal): 85.3 µM | TGI (RPMI-8226 leukemia): 49.2 µM | TGI (HCT-15 colon): > 100 µM | TGI (HOP-18 NSCLC): > 100 µM | TGI (SF-539 CNS): 43.1 µM | TGI (SNB-19 CNS): > 100 µM | TGI (KM20L2 colon): 48.7 µM | TGI (UO-31 renal): > 100 µM | TGI (SF-268 CNS): > 100 µM | TGI (XF 498 CNS): 45.7 µM | TGI (NCI-H460 lung): > 100 µM | TGI (HOP-92 NSCLC): > 100 µM | TGI (OVCAR-8 ovarian): > 100 µM | TGI (786-0 renal): 36.7 µM | TGI (U251 CNS): > 100 µM | TGI (COLO 205 colon): 49.2 µM | TGI (NCI-H23 lung): > 100 µM | TGI (SK-OV-3 ovarian): > 100 µM | TGI (EKVX NSCLC): 78.3 µM | TGI (LOX IMVI melanoma): 97.9 µM
